The target in experiment [1] is Tyrosine-protein kinase Fer (Homo sapiens) (UniProt P16591). The experiment can be described thus: Inhibition of human Fer at 10 uM after 60 mins by TR-FRET assay; values are per cent of control. In general terms: In TR-FRET formats the signal depends on donor and acceptor labels being close together.
Experiment [2] addresses Casein kinase I isoform gamma-2 (Homo sapiens) (UniProt P78368). Kind of experiment: Inhibition of human CK1gamma2 at 10 uM after 60 mins by TR-FRET assay; values are per cent of control.
Experiment [3] addresses Eukaryotic elongation factor 2 kinase (Homo sapiens) (UniProt O00418). Kind of experiment: Inhibition of human eEF-2K at 10 uM after 60 mins by TR-FRET assay; values are per cent of control.
Experiment [4] concerns the target Serine/threonine-protein kinase PAK 4 (Homo sapiens) (UniProt O96013). The experiment can be described thus: Inhibition of human PAK4 at 10 uM after 60 mins by TR-FRET assay; values are per cent of control.
Experiment [5] has as its target Activin receptor type-1B (Homo sapiens) (UniProt P36896). The experiment can be described thus: Inhibition of human ALK4 at 10 uM after 60 mins by TR-FRET assay; values are per cent of control.
Experiment [6] has as its target Serine/threonine-protein kinase pim-1 (Homo sapiens) (UniProt P11309). Kind of experiment: Inhibition of human Pim-1 at 10 uM after 60 mins by TR-FRET assay; values are per cent of control.
The target of experiment [7] is Death-associated protein kinase 3 (Homo sapiens) (UniProt O43293). Kind of experiment: Inhibition of human ZIPK at 10 uM after 60 mins by TR-FRET assay; values are per cent of control.
In experiment [8] the target is MAP kinase-interacting serine/threonine-protein kinase 2 (Homo sapiens) (UniProt Q9HBH9). Kind of experiment: Inhibition of human Mnk2 at 10 uM after 60 mins by TR-FRET assay; values are per cent of control.
The target of experiment [9] is T1, Serine/threonine-protein kinase 3 (Homo sapiens) (UniProt Q13188).
T1 sequence (whole entry): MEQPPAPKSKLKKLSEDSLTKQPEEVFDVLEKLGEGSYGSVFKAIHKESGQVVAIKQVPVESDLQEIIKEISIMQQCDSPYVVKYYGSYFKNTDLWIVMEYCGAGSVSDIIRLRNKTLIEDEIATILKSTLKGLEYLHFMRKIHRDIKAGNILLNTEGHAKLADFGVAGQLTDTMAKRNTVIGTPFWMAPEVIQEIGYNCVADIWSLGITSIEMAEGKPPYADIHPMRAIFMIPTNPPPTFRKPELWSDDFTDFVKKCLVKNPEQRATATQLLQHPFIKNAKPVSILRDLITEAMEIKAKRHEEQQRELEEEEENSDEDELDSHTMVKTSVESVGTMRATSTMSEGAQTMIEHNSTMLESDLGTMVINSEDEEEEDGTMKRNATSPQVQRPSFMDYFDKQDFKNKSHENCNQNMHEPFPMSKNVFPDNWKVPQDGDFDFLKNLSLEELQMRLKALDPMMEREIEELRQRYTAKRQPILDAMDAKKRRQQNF
Kind of experiment: Inhibition of human MST2 at 10 uM after 60 mins by TR-FRET assay. The following applies: values are per cent of control.

In experiment [10] the target is Mitogen-activated protein kinase 8 (Homo sapiens, UniProt P45983). Kind of experiment: Inhibition of human JNK1alpha1 at 10 uM after 60 mins by TR-FRET assay. As to conditions: values are per cent of control.
Experiment [11] deals with Mitogen-activated protein kinase 1 (Mus musculus) (UniProt P63085). Kind of experiment: Inhibition of mouse MAPK2 at 10 uM after 60 mins by TR-FRET assay; values are per cent of control.
The target in experiment [12] is Tyrosine-protein kinase Blk (Mus musculus) (UniProt P16277). The experiment can be described thus: Inhibition of mouse Blk at 10 uM after 60 mins by TR-FRET assay; values are per cent of control.
Experiment [13] addresses Glycogen synthase kinase-3 alpha (Homo sapiens) (UniProt P49840). Kind of experiment: Inhibition of human GSK3alpha at 10 uM after 60 mins by TR-FRET assay; values are per cent of control.
Experiment [14] addresses Serine/threonine-protein kinase 17A (Homo sapiens) (UniProt Q9UEE5). Kind of experiment: Inhibition of human DRAK1 at 10 uM after 60 mins by TR-FRET assay; values are per cent of control.
For experiment [15], the target named is Insulin-like growth factor 1 receptor (Homo sapiens) (UniProt P08069). Kind of experiment: Inhibition of human IGF-1R at 10 uM after 60 mins by TR-FRET assay; values are per cent of control.
Experiment [16] deals with Myosin light chain kinase, smooth muscle (Homo sapiens) (UniProt Q15746). Kind of experiment: Inhibition of human MLCK at 10 uM after 60 mins by TR-FRET assay; values are per cent of control.
The target in experiment [17] is Rho-associated protein kinase 2 (Homo sapiens) (UniProt O75116). The experiment can be described thus: Inhibition of human ROCK-2 at 10 uM after 60 mins by TR-FRET assay; values are per cent of control.
Experiment [18] deals with Serine/threonine-protein kinase haspin (Homo sapiens) (UniProt Q8TF76). The experiment can be described thus: Inhibition of human Haspin at 10 uM after 60 mins by TR-FRET assay; values are per cent of control.
Experiment [19] relates to Tyrosine-protein kinase ABL1 (Homo sapiens), P00519 [Q252H]. Kind of experiment: Inhibition of human Abl Q252H mutant at 10 uM after 60 mins by TR-FRET assay; values are per cent of control.
Experiment [20] deals with Serine/threonine-protein kinase DCLK2 (Homo sapiens) (UniProt Q8N568). Kind of experiment: Inhibition of human DCAMKL2 at 10 uM after 60 mins by TR-FRET assay; values are per cent of control.
Experiment [21] has as its system Angiopoietin-1 receptor (Homo sapiens), Q02763 [Y897S]. Kind of experiment: Inhibition of human Tie2 Y897S mutant at 10 uM after 60 mins by TR-FRET assay; values are per cent of control.
Experiment [22] addresses Protein kinase C beta type (Homo sapiens) (UniProt P05771). Kind of experiment: Inhibition of human PKCbeta2 at 10 uM after 60 mins by TR-FRET assay; values are per cent of control.
The target in experiment [23] is Ribosomal protein S6 kinase alpha-6 (Homo sapiens) (UniProt Q9UK32). The experiment can be described thus: Inhibition of human Rsk4 at 10 uM after 60 mins by TR-FRET assay. As to conditions: values are per cent of control.
The target in experiment [24] is Ephrin type-A receptor 1 (Homo sapiens) (UniProt P21709). Kind of experiment: Inhibition of human EphA1 at 10 uM after 60 mins by TR-FRET assay; values are per cent of control.

SMILES strings stand for the structures.

Chain of Serine/threonine-protein kinase haspin (Homo sapiens) (Q8TF76 whole entry): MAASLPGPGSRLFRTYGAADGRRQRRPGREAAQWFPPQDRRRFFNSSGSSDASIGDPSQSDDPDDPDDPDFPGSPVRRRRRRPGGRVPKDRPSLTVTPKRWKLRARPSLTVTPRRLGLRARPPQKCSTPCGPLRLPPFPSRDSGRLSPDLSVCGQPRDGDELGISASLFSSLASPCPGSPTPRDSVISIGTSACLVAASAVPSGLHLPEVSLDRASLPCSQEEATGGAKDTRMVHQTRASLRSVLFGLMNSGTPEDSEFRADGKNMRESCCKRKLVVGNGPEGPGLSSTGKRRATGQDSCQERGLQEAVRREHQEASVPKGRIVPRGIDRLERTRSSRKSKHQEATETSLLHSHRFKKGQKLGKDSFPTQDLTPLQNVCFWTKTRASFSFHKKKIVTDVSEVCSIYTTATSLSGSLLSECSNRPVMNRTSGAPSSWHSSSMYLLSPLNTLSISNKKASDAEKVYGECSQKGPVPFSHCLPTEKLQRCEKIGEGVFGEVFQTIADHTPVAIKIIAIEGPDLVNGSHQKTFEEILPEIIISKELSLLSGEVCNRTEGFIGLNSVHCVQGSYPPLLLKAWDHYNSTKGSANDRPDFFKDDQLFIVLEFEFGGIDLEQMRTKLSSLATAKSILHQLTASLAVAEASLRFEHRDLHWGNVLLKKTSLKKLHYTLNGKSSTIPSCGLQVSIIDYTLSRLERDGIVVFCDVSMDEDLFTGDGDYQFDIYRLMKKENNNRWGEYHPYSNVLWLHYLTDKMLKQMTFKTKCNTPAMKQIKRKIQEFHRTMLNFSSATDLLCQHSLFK
Chain of Ribosomal protein S6 kinase alpha-6 (Homo sapiens) (Q9UK32 whole entry, looked up): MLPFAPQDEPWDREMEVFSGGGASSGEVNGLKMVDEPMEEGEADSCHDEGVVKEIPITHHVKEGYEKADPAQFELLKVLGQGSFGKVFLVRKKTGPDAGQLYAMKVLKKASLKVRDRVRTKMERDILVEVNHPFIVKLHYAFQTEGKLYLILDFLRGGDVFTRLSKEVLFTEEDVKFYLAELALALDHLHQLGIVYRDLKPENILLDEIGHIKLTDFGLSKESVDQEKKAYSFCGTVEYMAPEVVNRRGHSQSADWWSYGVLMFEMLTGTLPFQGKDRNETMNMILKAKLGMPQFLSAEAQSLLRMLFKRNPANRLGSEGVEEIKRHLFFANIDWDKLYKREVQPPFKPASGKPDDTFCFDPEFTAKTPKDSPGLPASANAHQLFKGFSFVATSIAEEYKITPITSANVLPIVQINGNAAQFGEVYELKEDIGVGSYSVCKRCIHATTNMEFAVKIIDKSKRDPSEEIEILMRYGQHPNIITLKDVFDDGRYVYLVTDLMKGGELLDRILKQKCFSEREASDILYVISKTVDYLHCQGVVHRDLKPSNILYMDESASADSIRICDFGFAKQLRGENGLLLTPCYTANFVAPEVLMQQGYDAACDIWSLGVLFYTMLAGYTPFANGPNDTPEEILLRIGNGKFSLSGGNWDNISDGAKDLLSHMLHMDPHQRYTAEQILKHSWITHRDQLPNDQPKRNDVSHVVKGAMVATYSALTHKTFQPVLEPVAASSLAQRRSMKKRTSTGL
Chain of Activin receptor type-1B (Homo sapiens) (P36896 whole entry): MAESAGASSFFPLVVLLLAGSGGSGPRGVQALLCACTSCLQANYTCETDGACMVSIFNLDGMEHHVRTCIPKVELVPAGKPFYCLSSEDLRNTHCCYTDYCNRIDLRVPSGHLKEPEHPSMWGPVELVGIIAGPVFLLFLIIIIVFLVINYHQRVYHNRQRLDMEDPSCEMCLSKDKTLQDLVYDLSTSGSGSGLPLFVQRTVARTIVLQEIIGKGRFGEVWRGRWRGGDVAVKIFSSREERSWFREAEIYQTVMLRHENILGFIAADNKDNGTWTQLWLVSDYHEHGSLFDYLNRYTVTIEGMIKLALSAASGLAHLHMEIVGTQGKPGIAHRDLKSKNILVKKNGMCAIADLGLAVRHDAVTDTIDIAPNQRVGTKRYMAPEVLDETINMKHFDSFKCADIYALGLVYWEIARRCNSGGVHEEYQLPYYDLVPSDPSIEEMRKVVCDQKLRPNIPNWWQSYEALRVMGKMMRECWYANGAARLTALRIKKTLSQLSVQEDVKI
Chain of Serine/threonine-protein kinase 17A (Homo sapiens) (Q9UEE5 whole entry): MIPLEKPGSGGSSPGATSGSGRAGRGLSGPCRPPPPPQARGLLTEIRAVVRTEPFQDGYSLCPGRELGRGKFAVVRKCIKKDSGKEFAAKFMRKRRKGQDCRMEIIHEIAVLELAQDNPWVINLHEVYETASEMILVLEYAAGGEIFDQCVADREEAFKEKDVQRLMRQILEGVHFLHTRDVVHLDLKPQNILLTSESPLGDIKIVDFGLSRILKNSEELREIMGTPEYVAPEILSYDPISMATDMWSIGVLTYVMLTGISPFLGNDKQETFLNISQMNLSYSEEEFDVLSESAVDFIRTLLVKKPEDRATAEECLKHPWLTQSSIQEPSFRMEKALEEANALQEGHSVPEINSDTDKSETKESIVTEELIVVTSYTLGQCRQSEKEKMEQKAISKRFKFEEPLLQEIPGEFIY
Chain of Serine/threonine-protein kinase DCLK2 (Homo sapiens) (Q8N568 whole entry): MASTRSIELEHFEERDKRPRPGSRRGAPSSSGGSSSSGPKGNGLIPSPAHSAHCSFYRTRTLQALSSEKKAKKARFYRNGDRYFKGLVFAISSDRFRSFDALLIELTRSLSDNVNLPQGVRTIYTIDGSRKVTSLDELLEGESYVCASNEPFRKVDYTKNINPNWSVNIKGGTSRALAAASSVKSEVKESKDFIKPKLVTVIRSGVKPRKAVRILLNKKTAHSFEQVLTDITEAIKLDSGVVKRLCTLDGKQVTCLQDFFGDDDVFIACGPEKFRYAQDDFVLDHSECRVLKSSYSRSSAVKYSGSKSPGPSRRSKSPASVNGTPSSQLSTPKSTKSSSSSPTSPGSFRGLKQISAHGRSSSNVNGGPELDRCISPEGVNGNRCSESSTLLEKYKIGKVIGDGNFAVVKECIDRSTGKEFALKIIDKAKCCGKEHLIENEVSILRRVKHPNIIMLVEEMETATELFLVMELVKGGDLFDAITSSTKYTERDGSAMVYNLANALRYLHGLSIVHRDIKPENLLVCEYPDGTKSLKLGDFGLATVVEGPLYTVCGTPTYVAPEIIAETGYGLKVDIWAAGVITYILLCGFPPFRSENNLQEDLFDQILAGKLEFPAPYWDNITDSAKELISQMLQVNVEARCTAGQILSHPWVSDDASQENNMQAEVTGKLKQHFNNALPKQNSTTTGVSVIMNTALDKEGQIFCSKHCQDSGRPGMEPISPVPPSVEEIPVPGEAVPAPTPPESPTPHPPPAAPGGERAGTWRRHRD
Chain of Protein kinase C beta type (Homo sapiens) (P05771 2-671 limits assumed): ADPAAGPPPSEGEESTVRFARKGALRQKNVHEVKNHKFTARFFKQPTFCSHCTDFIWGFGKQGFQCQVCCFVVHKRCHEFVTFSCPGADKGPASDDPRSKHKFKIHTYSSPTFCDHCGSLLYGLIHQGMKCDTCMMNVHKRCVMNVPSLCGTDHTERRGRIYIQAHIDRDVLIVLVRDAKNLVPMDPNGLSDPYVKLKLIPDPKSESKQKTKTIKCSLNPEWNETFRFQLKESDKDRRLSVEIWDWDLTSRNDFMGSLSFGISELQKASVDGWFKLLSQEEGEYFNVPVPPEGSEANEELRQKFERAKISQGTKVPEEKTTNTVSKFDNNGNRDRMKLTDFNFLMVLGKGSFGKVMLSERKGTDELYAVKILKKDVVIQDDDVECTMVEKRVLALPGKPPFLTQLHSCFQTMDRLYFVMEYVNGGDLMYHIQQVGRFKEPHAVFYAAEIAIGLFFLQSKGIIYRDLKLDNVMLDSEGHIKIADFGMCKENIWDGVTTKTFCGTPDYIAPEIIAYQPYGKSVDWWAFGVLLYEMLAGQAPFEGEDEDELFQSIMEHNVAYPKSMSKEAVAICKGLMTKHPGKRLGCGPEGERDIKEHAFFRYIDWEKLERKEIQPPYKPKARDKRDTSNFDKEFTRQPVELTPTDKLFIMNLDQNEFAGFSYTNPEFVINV
Chain of Glycogen synthase kinase-3 alpha (Homo sapiens) (P49840 2-483 limits assumed): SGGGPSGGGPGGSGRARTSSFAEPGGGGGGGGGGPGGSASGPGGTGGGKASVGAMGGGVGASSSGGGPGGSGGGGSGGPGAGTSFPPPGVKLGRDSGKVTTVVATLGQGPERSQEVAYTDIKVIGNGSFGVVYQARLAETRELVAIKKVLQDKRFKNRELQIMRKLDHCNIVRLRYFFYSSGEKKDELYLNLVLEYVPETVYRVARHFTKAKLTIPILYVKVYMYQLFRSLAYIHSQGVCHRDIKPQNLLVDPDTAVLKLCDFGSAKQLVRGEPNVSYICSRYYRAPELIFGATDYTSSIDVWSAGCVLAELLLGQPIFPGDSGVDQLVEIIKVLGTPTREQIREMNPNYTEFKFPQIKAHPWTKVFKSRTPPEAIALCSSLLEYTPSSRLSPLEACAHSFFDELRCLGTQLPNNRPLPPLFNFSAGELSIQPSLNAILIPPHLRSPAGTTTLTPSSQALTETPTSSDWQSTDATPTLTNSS
Chain of Mitogen-activated protein kinase 1 (Mus musculus) (P63085 whole entry): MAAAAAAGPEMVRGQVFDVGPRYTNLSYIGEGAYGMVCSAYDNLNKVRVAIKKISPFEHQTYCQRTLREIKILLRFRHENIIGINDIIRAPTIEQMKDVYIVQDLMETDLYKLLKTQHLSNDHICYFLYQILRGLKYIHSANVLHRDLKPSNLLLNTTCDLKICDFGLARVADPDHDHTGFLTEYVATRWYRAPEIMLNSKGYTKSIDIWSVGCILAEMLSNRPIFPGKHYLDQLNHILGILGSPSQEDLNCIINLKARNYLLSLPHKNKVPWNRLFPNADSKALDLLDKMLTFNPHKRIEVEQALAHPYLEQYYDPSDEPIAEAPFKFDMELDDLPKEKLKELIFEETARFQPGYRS

For `S=c1[nH]nc(-c2ccncc2)n1-c1ccc2ccccc2c1`, the residual activity in experiment [1] came to 99%; in experiment [2], 99%; in experiment [3], 105%; in experiment [4], 112%; in experiment [5], 112%; in experiment [6], 96%. Besides, the residual activity in experiment [7] was found to be 103%; in [8], 112%; in experiment [9], 103%; in experiment [10], 110%; in [11] it was 114%; in [12], 107%. Also, the residual activity in [13] is 85%; in experiment [14], 96%; in experiment [15], 115%; in [16], 103%; in [17], 101%; in experiment [18], 102%. The residual activity in experiment [19] was 111%; in [20], 112%; in experiment [21], 92%; in experiment [22], 105%; in [23], 109%; in [24] it was 103%.
